Where a name gives a salt, the structure may show the parent alone.
Tests used:
D2 receptors = D2 receptors (Chlorocebus aethiops, UniProt P52702); test: D2 receptor binding (displacement of 3H-YM 09151-2); set-up: species or system African Green monkey; details: COS cells with recombinant D2 receptors; 0.5 nM 3H-YM 09151-2; Table 2
Description: (§1) Assay for D2 and D4 Receptor Binding Activity
(§2) Pellets of COS cells containing recombinantly produced D2 or D4 receptors from African Green monkey were used for the assays. The sample is homogenized in 100 volumes (w/vol) of 0.05 M Tris HCl buffer at 4° C. and pH 7.4. The sample is then centrifuged at 30,000×g and resuspended and rehomogenized. The sample is then centrifuged as described and the final tissue sample is frozen until use. The tissue is resuspended 1:20 (wt/vol) in 0.05 M Tris HCl buffer containing 100 mM NaCl.
(§3) Incubations are carried out at […] and contain 0.4 ml of tissue sample, 0.5 nM ^3 H-YM 09151-2 (Nemonapride, cis-5-Chloro-2-methoxy-4-(methylamino)-N-(2-methyl-2-(phenylmethyl)-3-pyrroli-dinyl)benzamide) and the compound of interest in a total incubation of 1.0 ml. Nonspecific binding is defined as that binding found in the presence of 1 mM spiperone; without further additions, nonspecific binding is less than 20% of total binding.

D4 receptors = test: D4 receptor binding (displacement of 3H-YM 09151-2); set-up: species or system African Green monkey; details: COS cells with recombinant D4 receptors; 0.5 nM 3H-YM 09151-2; Table 2
Description: as §1, §2, §3

Chain of D2 receptors (P52702 whole entry): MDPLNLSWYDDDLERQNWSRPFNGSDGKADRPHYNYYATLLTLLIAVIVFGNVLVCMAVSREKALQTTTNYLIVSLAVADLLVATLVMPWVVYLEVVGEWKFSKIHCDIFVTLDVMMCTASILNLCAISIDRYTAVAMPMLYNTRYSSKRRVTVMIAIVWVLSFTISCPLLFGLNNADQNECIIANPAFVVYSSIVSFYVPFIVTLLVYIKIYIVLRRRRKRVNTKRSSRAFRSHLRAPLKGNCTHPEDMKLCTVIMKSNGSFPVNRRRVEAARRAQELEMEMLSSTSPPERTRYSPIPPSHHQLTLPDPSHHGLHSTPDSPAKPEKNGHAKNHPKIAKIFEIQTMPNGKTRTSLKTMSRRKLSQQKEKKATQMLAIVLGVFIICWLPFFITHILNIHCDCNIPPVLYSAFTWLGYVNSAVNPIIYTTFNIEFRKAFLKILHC

Row | Ki (D2 receptors) [nM] | Ki (D4 receptors) [nM] | Structure (SMILES)
1 | 3510 | 25 | Cc1ccc(CN2CCN(c3nc4ccccc4s3)CC2)cc1 [Compound 2A, 1-(benzothiazol-2-yl)-4-(1-[4-methylphenyl]methyl)piperazine oxalate]
2 | > 4000 | 14 | Clc1ccc(CN2CCN(c3nc4ccccc4s3)CC2)cc1 [Compound 1A, 1-(Benzothiazol-2-yl)-4-(1-[4-chlorophenyl]methyl)piperazine]
3 | 3510 | 76 | c1ccc2cc(CN3CCN(c4nc5ccccc5s4)CC3)ccc2c1 [Compound 4A, 1-(benzothiazol-2-yl)-4-(1-[2-naphthyl]methyl)piperazine oxalate]

From patent US6291463A, “1-(Benzothiazol-2-yl)-4-(1-phenylmethyl) piperazines: dopamine receptor subtype specific ligands” (Neurogen Corporation, priority 1999, dated 2001)
